Experimental data published in patent publication US5382670A, “Platelet activating factor antagonists” (priority 1993, dated 1995).
pKi: −log10 of the molar value. Where a name gives a salt, the structure may show the parent alone. Read-outs that look alike come from different tables or passages of the source.

Biological target: PAF receptor (Oryctolagus cuniculus, UniProt G1TEI7)
Experiment: PAF receptor binding assay: inhibition of specific [3H]C18-PAF binding to rabbit platelet membranes
Details: 0.6 nM [3H]C18-PAF, 60 min, 22-23 °C, Ki from IC50 (Cheng and Prusoff)
Procedure: The ability of representative compounds of the present invention to inhibit PAF activity was determined in an in vitro test using the following method.
Citrated whole rabbit blood was obtained from Pel-Freez (Rogers, AR). Rabbit platelets were prepared by centrifugation and washing. The platelets were lysed by freeze-thawing and sonication; platelet membranes were prepared by centrifugation and washing. Final membrane preparations were stored frozen in 10 mM Tris/5 mM MgCl2 /2 mM EDTA (TME buffer, pH 7.0) with 0.25M sucrose added for membrane stabilization.
The standard PAF receptor binding assay contained 10 μg platelet membrane protein, 0.6 nM [^3 H]C18 -PAF (from Amersham or New England Nuclear; specific activity 120-180 Ci/mmol), with and without test compound, in "binding buffer" consisting of TME with 0.25% bovine serum albumin added (Sigma, RIA grade). The final volume of the assay was 100 μl. The assay was conducted in Millititre-GV™ (Millipore Corp.) filtration plates; incubation time was for 60 minutes at room temperature (22°-23° C.). "Specific binding" was operationally defined as the arithmetic difference between "total binding" of 0.6 nM [^3 H]C18 -PAF (in the abasence of added PAF) and "nonspecific binding" (in the presence of 1 μM PAF). After the prescribed incubation, platelet membranes were filtered under vacuum, and washed with 1 milliliter of "binding buffer". The filters were dried and removed. The bound radioactivity was quantitated with a Berthold TLC-Linear Analyzer model LB2842.
Dose-response curves of inhibition of specific [^3 H]C18 -PAF binding by test compounds were conducted in triplicate, with at least four doses covering the active range. Experiments were repeated at least once. IC50 values (concentration producing 50% inhibition) were determined by point-to-point evaluation. Ki values of inhibitory binding constants were calculated according to the method of Cheng and Prusoff [Biochem. Pharmacol. 22 (1973) 3099-3108] whereby [formula]
The values of Ki for representative compounds of the present invention appear in Table 1.

[1] = Ki (PAF Receptor Binding Activity)
[2] = read-out: Ki (PAF Receptor Binding Activity)

PAF receptor, sequence (G1TEI7 1-342): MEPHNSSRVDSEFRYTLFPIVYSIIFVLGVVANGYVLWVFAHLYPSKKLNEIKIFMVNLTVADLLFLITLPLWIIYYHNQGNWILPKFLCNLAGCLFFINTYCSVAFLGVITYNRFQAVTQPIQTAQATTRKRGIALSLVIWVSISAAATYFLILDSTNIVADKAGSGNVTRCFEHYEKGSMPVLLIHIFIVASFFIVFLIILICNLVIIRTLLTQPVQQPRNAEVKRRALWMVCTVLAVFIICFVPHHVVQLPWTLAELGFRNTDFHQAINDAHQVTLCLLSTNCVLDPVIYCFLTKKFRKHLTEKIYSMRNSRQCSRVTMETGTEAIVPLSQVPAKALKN

Compound | pKi [2] | pKi [1]
N#Cc1ccc2c(ccn2C(=O)C2CSC(c3cccnc3)N2)c1 (stereo not drawn) [Example 10, 1-[2-(3-pyridinyl)thiazolid-4-oyl]-5-cyanoindole dihydrochloride] | – | 5.68
O=C(C1CSC(c2cccnc2)N1)n1ccc2c(Cl)cccc21 (stereo not drawn) [Example 5, 1-[2-(3-pyridinyl)thiazolid-4-oyl]-4-chloroindole dihydrochloride] | 7.48 | –
Cc1ccc2c(C(=O)C3CSC(c4cccnc4)N3C=O)cn(C(=O)N(C)C)c2c1 (stereo not drawn) [Example 94, 1-dimethylcarbamoyl-3-[2-(3-pyridinyl)-3-formylthiazolid-4-oyl]-6-methylindole] | 7.48 | –
CNC(=O)Cn1cc(C(=O)C2CSC(c3cccnc3)N2)c2ccccc21 (stereo not drawn) [Example 117, 1-(N-methylcarbamoylmethyl)-3-[2-(3-pyridinyl)thiazolid-4-oyl]indole] | – | 8.52
O=C(c1c[nH]c2ccccc12)C1CSC(c2cccnc2)N1C(=O)C(F)(F)F (single isomer, unassigned; isomer 1) [Example 102, 3-[2-(3-pyridinyl)-3-trifluoroacetylthiazolid-4-oyl]indole,isomer 1] | 5.57 | –
CC(C)(C)OC(=O)n1cc(C(=O)[C@@H]2CS[C@@H](c3cccnc3)S2)c2ccccc21 (relative stereo) [Example 30, trans 1-tert-butoxycarbonyl-3-[2-(3-pyridinyl)dithiolan-4-oyl]indole oxalate] | 6.05 | –
O=C(c1cn(Cc2ccccc2)c2ccccc12)C1CSC(c2cccnc2)N1 (stereo not drawn) [Example 46, 1-phenylmethyl-3-[2-(3-pyridinyl)thiazolid-4-oyl]indole] | – | 7.30
O=C(c1c[nH]c2ccccc12)C1CSC(c2cccnc2)N1C(=O)C(F)(F)F (single isomer, unassigned; isomer 2) [Example 103, 3-[2-(3-pyridinyl)-3-trifluoroacetylthiazolid-4-oyl]indole, isomer 2] | 5.55 | –
CC(C)(C)OC(=O)n1cc(C(=O)C2CSC(c3cccnc3)N2)c2cccc(OCc3ccccc3)c21 (stereo not drawn) [Example 53, 1-tert-butoxycarbonyl-7-phenylmethoxy-3-[2-(3-pyridinyl)thiazolid-4-oyl]indole] | 9.00 | –
COC(=O)CCn1cc(C(=O)C2CSC(c3cccnc3)N2)c2ccccc21 (stereo not drawn) [Example 118, 1-carbomethoxyethyl-3-[2-(3-pyridinyl)thiazolid-4-oyl]indole] | – | 8.30
CCOC(=O)Cn1cc(C(=O)C2CSC(c3cccnc3)N2)c2ccccc21 (stereo not drawn) [Example 60, 1-ethoxycarbonylmethyl-3-[2-(3-pyridinyl)thiazolid-4-oyl]indole] | – | 8.70
Cc1c(C(=O)C2CSC(c3cccnc3)N2)c2ccccc2n1C (stereo not drawn) [Example 21, 1.2-dimethyl-3-[2-(3-pyridinyl)thiazolid-4-oyl]indole oxalate] | 6.98 | –
Cc1ccc2c(c1)c(C(=O)C1CSC(c3cccnc3)N1)c(C)n2C(=O)OC(C)(C)C (stereo not drawn) [Example 67, 1-tert-butoxycarbonyl-2,5-dimethyl-3-[2-[3-pyridinyl)thiazolid-4-oyl]indole oxalate] | 7.41 | –
COc1ccc2c(C(=O)C3CSC(c4cccnc4)N3)c[nH]c2c1 (stereo not drawn) [Example 83, 3-[2-(3-pyridinyl)thiazolid-4-oyl]-6-methoxyindole oxalate] | – | 7.80
O=C(c1cc2ccccc2[nH]1)C1CSC(c2cccnc2)N1 (stereo not drawn) [Example 115, 2-[2-(3-pyridinyl)thiazolid-4-oyl]indole] | – | 6.81
O=C(c1cn(C(=O)N2CCOCC2)c2ccccc12)C1CSC(c2cccnc2)N1 (stereo not drawn) [Example 55, 1-(4-morpholinocarbonyl)-3-[2-(3-pyridinyl)thiazolid-4-oyl]indole] | 8.70 | –
COc1ccc2c(C(=O)C3CSC(c4cccnc4)N3)cn(C(=O)OC(C)(C)C)c2c1 (stereo not drawn) [Example 84, 1-tert-butoxycarbonyl-3-[2-(3-pyridinyl)thiazolid-4-oyl]-6-methoxyindole oxalate] | 8.05 | –
CCCn1cc(C(=O)C2CSC(c3cccnc3)N2)c2ccccc21 (stereo not drawn) [Example 61, 1-propyl-3-[2-(3-pyridinyl)thiazolid-4-oyl]indole] | – | 8.10
O=C(C1CSC(c2cccnc2)N1)n1ccc2cc(Cl)ccc21 (stereo not drawn) [Example 9, 1-[2-(3-pyridinyl)thiazolid-4-oyl]-5-chloroindole dihydrochloride] | – | 6.85
O=CN1C(C(=O)c2cn(C(=O)N3CCOCC3)c3ccccc23)CSC1c1cccnc1 (stereo not drawn) [Example 92, 1-(4-morpholinocarbonyl)-3-[2-(3-pyridinyl)-3-formylthiazolid-4-oyl]indole] | 6.82 | –
1-ethoxycarbonyl-3-[2-(3-pyridinyl)thiazolid-4-oyl]indole oxalate [Example 41] | 8.40 | –
O=C(O)Cn1cc(C(=O)C2CSC(c3cccnc3)N2)c2ccccc21 (stereo not drawn) [Example 120, 1-carboxymethyl-3-[2-(3-pyridinyl)thiazolid-4-oyl]indole] | – | 7.72
CC(C)(C)OC(=O)n1cc(C(=O)C2CSC(c3cccnc3)N2)c2ccc(OCc3ccccc3)cc21 (stereo not drawn) [Example 35, 1-tert-butoxycarbonyl-6-phenylmethoxy-3-[2-(3-pyridinyl)thiazolid-4-oyl]indole oxalate] | 9.00 | –
O=C(C1CSC(c2cccnc2)S1)n1ccc2ccccc21 (stereo not drawn) [Example 26, 1-[2-(3-pyridinyl)dithiolan-4-oyl]indole oxalate] | 6.44 | –
Cc1[nH]c2ccccc2c1C(=O)C1CSC(c2cccnc2)N1 (stereo not drawn) [Example 39] | – | 7.64

The next lines start with results.

pKi [2] | Compound | pKi [1]
9.00 | CN(C)C(=O)n1cc(C(=O)C2CSC(c3cccnc3)N2)c2ccc(Cl)cc21 (stereo not drawn) [Example 89, 1-dimethylcarbamoyl-3-[2-(3-pyridinyl)thiazolid-4-oyl]-6-chloroindole] | –
7.28 | O=C(C1CSC(c2cccnc2)N1)n1ccc2ccc(OCc3ccccc3)cc21 (stereo not drawn) [Example 18, 1-(2-(3-pyridinyl)thiazolid-4-oyl)-6-phenylmethoxyindole oxalate] | –
8.70 | CN(C)C(=O)n1cc(C(=O)C2CSC(c3cccnc3)N2)c2ccc(OCc3ccc(F)cc3)cc21 (stereo not drawn) [Example 75, 1-dimethylcarbamoyl-3-[2-(3-pyridinyl)thiazolid-4-oyl]-6-(4-fluorophenylmethoxy)indole] | –
6.15 | CN(C)C(=O)n1cc(C(=O)C2CSC(c3cccnc3)N2C(N)=O)c2ccc(OCc3ccccc3)cc21 (stereo not drawn) [Example 111, 1-dimethylcarbamoyl-3-[2-(3-pyridinyl)-3-carbamoylthiazolid-4-oyl]-6-phenylmethoxyindole] | –
7.52 | O=C(c1c[nH]c2cc(OCc3cccnc3)ccc12)C1CSC(c2cccnc2)N1 (stereo not drawn) [Example 76] | –
8.10 | CCS(=O)(=O)n1cc(C(=O)C2CSC(c3cccnc3)N2)c2ccc(OCc3ccccc3)cc21 (stereo not drawn) [Example 73, 1-ethylsulfonyl-3-[2-(3-pyridinyl)thiazolid-4-oyl]-6-phenylmethoxyindole] | –
8.70 | CN(C)C(=O)n1cc(C(=O)C2CSC(c3cccnc3)N2)c2ccc(Oc3ccc(F)cc3)cc21 (stereo not drawn) [Example 71, 1-dimethylcarbamoyl-3-[2-(3-pyridinyl)thiazolid-4-oyl]-6-(4-fluorophenoxy)indole] | –
7.15 | CN(C)C(=O)n1cc(C(=O)C2CSC(c3cccnc3)N2C(=O)C(F)(F)F)c2ccc(OCc3ccccc3)cc21 (single isomer, unassigned; isomer 2) [Example 109, 1-dimethylcarbamoyl-3-[2-[3-pyridinyl)-3-trifluoroacetylthiazolid-4-oyl]-6-phenylmethoxyindole, isomer 2] | –
8.40 | COc1ccc2c(C(=O)C3CSC(c4cccnc4)N3)cn(C(=O)N(C)C)c2c1 (stereo not drawn) [Example 85, 1-dimethylcarbamoyl-3-[2-(3-pyridinyl)thiazolid-4-oyl]-6-methoxyindole] | –
5.30 | CC(=O)N1C(C(=O)c2cn(C(=O)N(C)C)c3cc(OCc4ccccc4)ccc23)CSC1c1cccnc1 (stereo not drawn) [Example 99, 1-dimethylcarbamoyl-3-[2-(3-pyridinyl)-3-acetylthiazolid-4-oyl]-6-phenylmethoxyindole] | –
7.89 | Cc1ccc2c(c1)c(C(=O)C1CSC(c3cccnc3)N1)c(C)n2C(=O)N(C)C (stereo not drawn) [Example 69, 1-dimethylcarbamoyl-2,5-dimethyl-3-[2-(3-pyridinyl)thiazolid-4oyl]indole oxalate] | –
8.52 | O=C(c1cn(C(=O)OCc2ccccc2)c2ccccc12)C1CSC(c2cccnc2)N1 (stereo not drawn) [Example 45, 1-phenylmethoxycarbonyl-3-[2-(pyridinyl)thiazolid-4-oyl]indole oxalate] | –
7.82 | O=C(C1CSC(c2cccnc2)N1)n1ccc2cc(OCc3ccccc3)ccc21 (stereo not drawn) [Example 11, 1-(2-(3-pyridinyl)thiazolid-4-oyl)-5-phenylmethoxyindole dihydrochloride] | –
7.60 | CN(C(=O)n1cc(C(=O)C2CSC(c3cccnc3)N2)c2ccccc21)c1ccccc1 (stereo not drawn) [Example 49, 1-(N-methyl, N-phenyl)-3-[2-(3-pyridinyl)thiazolid-4-oyl]indole] | –
